Columns and labels:
[1] = tested on: MIA PaCa-2 pancreatic cancer cells; test: EMT markers (vimentin, Twist, Snail) in pancreatic cancer cells; assay type: cell-based; details: FIG. 4
Excerpt: FIG. 4 depicts, in accordance with various embodiments of the invention, effect of HDAC, GSK3β inhibitions combined with gemcitabine on EMT in MIA PaCa-2 pancreatic cancer cells.
Inhibition of GSK3β induces up-regulation of EMT as shown by a measure of vimentin which is an accepted measurement for EMT (FIG. 4). This effect of GSK3β was prevented by the HDAC inhibitor Saha (FIG. 4). […] A combination of the two inhibitors with gemcitabine, a chemotherapeutic agent used in pancreatic cancer led to a complete inhibition of the EMT marker vimentin and its transcription factors (FIG. 4).

pdx1-Cre-LSL-Kras mice = test: Mouse model of pancreatic cancer (pdx1-Cre-LSL-Kras) exposed to cigarette smoke: PanIN lesions and fibrosis; assay type: in vivo; details: Saha 50 mg/Kg 5 times per week, TDZD-8 4 mg/Kg 3 times per week, 6 weeks; compared to control group
Method: FIG. 2 depicts, in accordance with various embodiments of the invention, effect of HDAC inhibitor Saha (50 mg/Kg) and GSK3β inhibitor (4 mg/Kg) alone and in combination on reducing PanIN lesion formation.
FIG. 3 depicts, in accordance with various embodiments of the invention, effect of HDAC inhibitor Saha (50 mg/Kg) and GSK3β inhibitor (4 mg/Kg) alone and in combination on fibrosis.
The inventors used a mouse model of pancreatic cancer where an oncogene call mutant K-ras is expressed in the pancreas (pdx1-Cre-LSL-Kras). These mice were exposed to cigarette smoke for 6 weeks in smoking chambers. Groups of mice were injected with GSK3β inhibitor TDZD-8 (4 mg/Kg, 3 times per week) and/or HDAC inhibitor Saha (50 mg/Kg; 5 times per week) for 6 weeks.
The same effect was observed when measuring fibrosis with collagen staining. Fibrosis is a measure of cancer activity.

[2] = tested on: MIA PaCa-2 pancreatic cancer cells; test: Cell survival with GSK3β inhibitor, HDAC inhibitor and combination; assay type: cell-based; details: FIGS. 5-7
Excerpt: FIG. 7 depicts, in accordance with various embodiments of the invention, effect of combination of GSK3β inhibitor tideglusib and HDAC inhibitor Saha on cell survival in pancreatic cancer cells MIA PaCa-2.

Raji lymphoma cells = test: Cell survival by counting cell number; assay type: cell-based; details: 72
Method: (§1) Cells were cultured in the presence or absence of different doses of ALB-185357 for 72 and cell survival measured by MTT assay (FIGS. 17 and 18) or by counting cell number (FIG. 19).

[3] = tested on: MIA PaCa-2 pancreatic cancer cell line; test: Cell invasion in Matrigel Invasion Chambers; assay type: cell-based; details: MIA PaCa-2, Matrigel Invasion Chambers
Method: (§2) Cells were cultured in the presence or absence of different doses of ALB-185357 for 72 and protein levels measured by Western (FIG. 22A) and cell invasion measured in Matrigel Invasion Chambers (FIG. 22B).

KPC mice = test: Survival of KPC mice with pancreatic adenocarcinoma; assay type: in vivo; details: 5 mg/Kg ip 3 times per week from age 8 weeks until death
Method: KPC mice, which have Kras and p53 mutations and spontaneously develop pancreatic adenocarcinoma, were ip injected 3 times per week with 5 mg/Kg of ALB185357 from age 8 weeks until death.

[4] = tested on: BT474 breast cancer cells; test: Cell survival by MTT assay; assay type: cell-based; details: BT474, 72
Method: as §1

[5] = tested on: hepatocellular carcinoma HepG2 cells; test: Cell survival by MTT assay; assay type: cell-based; details: HepG2, 72
Method: as §1

[6] = tested on: MIA PaCa-2 pancreatic cancer cell line; test: Apoptosis by DNA fragmentation; assay type: cell-based; details: MIA PaCa-2, 72
Method: Dashed lane represents the expected additive effect (Significance between expected additive effect and observed effect is achieved at 2.4 uM).
MIA PaCa-2 cells were cultured in the presence or absence of different doses of ALB-185357 for 72 and apoptosis assessed by measuring DNA fragmentation.
MIA PaCa-2 cells were cultured in the presence or absence of different doses of ALB-185357 or gemcitabine at the low dose of 1 ng/ml for 72 and apoptosis assessed by measuring DNA fragmentation.

[7] = tested on: normal pancreatic ductal cells; test: Cell survival of normal cells by MTT assay; assay type: cell-based; details: 72
Method: Cells were cultured in the presence or absence of different doses of ALB-185357 for 72 and cell survival measured by MTT assay.

[8] = tested on: BxPC-3 pancreatic cancer cell line; test: Cell survival by MTT assay; assay type: cell-based
Method: Thus, the effect of ALB-185357 (a dual inhibitor of HDAC and GSK3β) represents an additional synergism to that observed with the combination of individual agents.
BxPC-3 pancreatic cancer cells were cultured in the presence or absence of different doses of ALB-188540 or ALB-185643 for 72 and cell survival measured by MTT assay.

[9] = tested on: MIA PaCa-2 pancreatic cancer cell line; test: Western: histone acetylation and GSK-3β phosphorylation/inhibition; assay type: cell-based; details: MIA PaCa-2, 72
Method: Cells were cultured in the presence or absence of different doses of ALB-185357 for 72 and protein levels measured by Western.

[10] = tested on: MIA PaCa-2 pancreatic cancer cell line; test: Western: EMT and cancer stemness markers; assay type: cell-based; details: MIA PaCa-2, 72
Method: as §2

| Structure (SMILES) | EMT marker vimentin [1] | transcription factors regulating EMT (Twist and Snail) [1] | formation of pancreatic intraepithelial neoplasia (PanIN) lesions (pdx1-Cre-LSL-Kras mice) | cell survival [2] | cell survival (cell numbers) (Raji lymphoma cells) | cell invasion [3] | increase of mice survival (KPC mice) | survival of animals with advance pancreatic cancer (KPC mice) | cell survival (MTT) [4] | cell survival (MTT) [5] | apoptosis (DNA fragmentation level) [6] | dose at which significance of apoptosis increase was achieved [6] [nM] | cell survival of normal cells (MTT) [7] | concentration at which significance of the effect on cell survival was achieved ([8]; BxPC-3, 72 h, MTT) [nM] | effect on cell survival compared with combination of saha and tideglusib ([8]; BxPC-3, 72 h, same concentration) | cell survival (MTT) ([8]; BxPC-3, cultured 72 h) | GSK-3β phosphorylation/inhibition (Western) [9] | histone acetylation (Western) [9] | expression of EMT markers N-cadherin and twist (Western) [10] | expression of cancer stemness marker Sox2 (Western) [10] |
| --- | --- | --- | --- | --- | --- | --- | --- | --- | --- | --- | --- | --- | --- | --- | --- | --- | --- | --- | --- | --- |
| O=C(CCCCCCC(=O)Nc1ccccc1)NO [Saha, subcroylanilide hydroxamic acid] | prevented | inhibited | significantly decreased formation | dose-dependent effect | – | – | – | – | – | – | – | – | – | – | – | – | – | – | – | – |
| O=c1sn(-c2cccc3ccccc23)c(=O)n1Cc1ccccc1 [tideglusib, 4-Benzyl-2-(naphthalen-1-yl)-1,2,4-thiadiazolidine-3,5-dione] | – | – | – | dose-dependent effect | – | – | – | – | – | – | – | – | – | – | – | – | – | – | – | – |
| COc1ccc(Nc2nnc(-c3ccc(C(=O)NO)cc3)o2)cc1 [ALB-185357] | – | – | – | – | dose-dependently decreases cell survival | decreases the invasion | at least 50% | improves survival | dose-dependently decreases cell survival | dose-dependently decreases cell survival | dose-dependently increases apoptosis | 300 | does not affect cell survival | 300 | greater than the combination | dose-dependently decreased cell survival | dose-dependently up-regulates | dose-dependently up-regulates | decreases expression | decreases expression |
